# Measurements published in patent publication US20240158392A1 (Janssen Biotech, Inc., priority 2021, published 2024).
# Where two headings read alike, the source gives them in different places.
# Molecular target: SIK2 (Homo sapiens, UniProt Q9H0K1)
# Test: SIK2 Enzymatic Assay High Version 2 (High ATP)
# Type: biochemical
# In short: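 At room temperature, enzyme (6 nM, 2× final) was preincubated with compound for 30 min, then 6 mM ATP and 400 μM HDAC5tide (both 2× final) were added for 2 h. ADP formed was measured by ADP-Glo Max (2 h reagent, 1 h detection) using luminescence.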
# [1] = enzyme 6 nM, 6 mM ATP and 400 μM HDAC5tide (each 2× final concentration), 30 minutes pre-incubation, 2 hours, ADP-Glo Max luminescence, read-out: SIK2 high ATP IC50 (μM) (Test Example 2)
# Chain of SIK2 (Q9H0K1 whole entry, species assumed): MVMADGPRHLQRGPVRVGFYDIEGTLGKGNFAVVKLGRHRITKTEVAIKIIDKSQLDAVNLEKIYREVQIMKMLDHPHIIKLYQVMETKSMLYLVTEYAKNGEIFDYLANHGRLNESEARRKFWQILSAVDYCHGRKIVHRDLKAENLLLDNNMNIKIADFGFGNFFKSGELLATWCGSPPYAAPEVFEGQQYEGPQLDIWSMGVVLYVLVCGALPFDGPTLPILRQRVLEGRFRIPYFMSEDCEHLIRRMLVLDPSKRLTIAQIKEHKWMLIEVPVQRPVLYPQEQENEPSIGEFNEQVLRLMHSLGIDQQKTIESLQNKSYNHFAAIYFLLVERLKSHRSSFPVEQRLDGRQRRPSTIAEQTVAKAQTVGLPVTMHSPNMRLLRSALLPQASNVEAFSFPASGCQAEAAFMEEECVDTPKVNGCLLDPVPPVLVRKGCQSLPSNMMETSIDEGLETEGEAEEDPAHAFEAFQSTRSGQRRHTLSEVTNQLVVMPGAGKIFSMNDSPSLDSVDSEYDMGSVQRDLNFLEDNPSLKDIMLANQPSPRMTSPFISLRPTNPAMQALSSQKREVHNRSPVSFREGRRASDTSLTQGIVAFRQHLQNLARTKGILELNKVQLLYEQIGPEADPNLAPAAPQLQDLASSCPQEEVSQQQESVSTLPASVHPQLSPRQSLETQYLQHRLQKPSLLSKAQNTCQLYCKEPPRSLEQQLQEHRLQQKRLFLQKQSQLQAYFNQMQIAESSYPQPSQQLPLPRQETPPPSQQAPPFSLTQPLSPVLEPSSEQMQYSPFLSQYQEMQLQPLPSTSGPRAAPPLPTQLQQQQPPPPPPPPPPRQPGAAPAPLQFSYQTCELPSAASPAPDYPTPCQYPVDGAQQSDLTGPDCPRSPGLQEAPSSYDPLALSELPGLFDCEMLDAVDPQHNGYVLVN
Compound,IC50 [1],IC50
"(*S)-4-[[6-(difluoromethoxy)-4-[2-[(2,6-dimethylpyrimidin-4-yl)amino]pyrazolo[1,5-a]pyridin-5-yl]-3-pyridyl]oxymethyl]-1,5,5-trimethyl-pyrrolidin-2-one [Example 734]",0.00307 µM,–
"Cc1cc(-c2ccn3nc(Nc4ccc(C(=O)NCC(C)(C)O)cn4)cc3c2)c(O[C@H]2C[C@H]3COC[C@@H](C2)N3)cn1 [Example 371, N-(2-hydroxy-2-methyl-propyl)-6-[[5-[2-methyl-5-[[(1S,5R,7s)-3-oxa-9-azabicyclo[3.3.1]nonan-7-yl]oxy]-4-pyridyl]pyrazolo[1,5-a]pyridin-2-yl]amino]pyridine-3-carboxamide]",–,< 0.000847 µM
"Cc1cc(-c2ccn3nc(Nc4ccc5nccn5n4)cc3c2)c(OCC(C)(C)O)cn1 [Example 260, 1-[[4-[2-(imidazo[1,2-b]pyridazin-6-ylamino)pyrazolo[1,5-a]pyridin-5-yl]-6-methyl-3-pyridyl]oxy]-2-methyl-propan-2-ol]",0.0183 µM,–
"Cc1cc(-c2cn3cc(Nc4cc(C)nc(C)n4)nc3cn2)c(O[C@H]2C[C@H]3COC[C@@H](C2)N3)cn1 (single isomer, unassigned) [Example 348]",–,< 0.000847 µM
"Cc1cc(-c2ccn3nc(Nc4cc(C)nc(C)n4)cc3c2)c(OC[C@@](C)(O)C(F)(F)F)cn1 (single isomer, unassigned) [Example 264, (*R)-3-[[4-[2-[(2,6-dimethylpyrimidin-4-yl)amino]pyrazolo[1,5-a]pyridin-5-yl]-6-methyl-3-pyridyl]oxy]-1,1,1-trifluoro-2-methyl-propan-2-ol]",0.0348 µM,–
"Cc1cc(-c2ccn3nc(Nc4cnn(C(C)C)c4)cc3c2)c(OC[C@@H]2CNCCO2)cn1 [Example 133, N-(1-isopropylpyrazol-4-yl)-5-[2-methyl-5-[[(2S)-morpholin-2-yl]methoxy]-4-pyridyl]pyrazolo[1,5-a]pyridin-2-amine]",0.00845 µM,–
"Cc1cc(-c2ccn3nc(Nc4cc(C)nc(C)n4)cc3c2)c(OCC2CC(=O)N(C)C2(C)C)cn1 (racemic) [Example 325, (rac)-4-[[4-[2-[(2,6-dimethylpyrimidin-4-yl)amino]pyrazolo[1,5-a]pyridin-5-yl]-6-methyl-3-pyridyl]oxymethyl]-1,5,5-trimethyl-pyrrolidin-2-one]",0.00265 µM,–
"Cc1cc(-c2ccn3nc(NC(=O)C4CC4)cc3c2)c(OCC2(O)CCC(F)(F)CC2)cn1 (racemic) [Example 188, rac-N-[5-[5-[(4,4-difluoro-1-hydroxy-cyclohexyl)methoxy]-2-methyl-4-pyridyl]pyrazolo[1,5-a]pyridin-2-yl]cyclopropanecarboxamide]",0.0478 µM,–

# Second part, led by results:
IC50 [1],Compound,IC50
< 0.000847 µM,"CC#Cc1cc(-c2ccn3nc(Nc4ccn(C)n4)cc3c2)c(OCC2(F)CNC2)cn1 [Example 437, 5-[5-[(3-fluoroazetidin-3-yl)methoxy]-2-prop-1-ynyl-4-pyridyl]-N-(1-methylpyrazol-3-yl)pyrazolo[1,5-a]pyridin-2-amine]",–
0.00911 µM,"Cc1cc(Nc2cc3cc(-c4cc(OC(F)F)ncc4OCC(C)(C)C(=O)N(C)C)ccn3n2)nc(C)n1 [Example 735, 3-[[6-(difluoromethoxy)-4-[2-[(2,6-dimethylpyrimidin-4-yl)amino]pyrazolo[1,5-a]pyridin-5-yl]-3-pyridyl]oxy]-N,N,2,2-tetramethyl-propanamide]",–
0.00436 µM,"CC#Cc1cc(-c2ccn3nc(NC(=O)C4CC4)cc3c2)c(OC[C@@H]2CNCCO2)cn1 [Example 443, N-[5-[5-[[(2S)-morpholin-2-yl]methoxy]-2-prop-1-ynyl-4-pyridyl]pyrazolo[1,5-a]pyridin-2-yl]cyclopropanecarboxamide]",–
0.016 µM,"CC#Cc1cc(-c2ccn3nc(Nc4cc(C)nc(C)n4)cc3c2)c(N[C@H]2CC[C@@H](O)CC2)cn1 [Example 362, 4-[[4-[2-[(2,6-dimethylpyrimidin-4-yl)amino]pyrazolo[1,5-a]pyridin-5-yl]-6-prop-1-ynyl-3-pyridyl]amino]cyclohexanol]",–
